Test systems include EKVX; OVCAR-3; K562; ACHN; SW-620; HOP-92; UACC-62; MDA-MB-435; HCT-15; UACC-257; RXF 393; SK-MEL-28; SK-MEL-2; HCT-116; SNB-19; SF-268; PC-3; U-251; COLO 205.
Assay in all cases: DTP human tumour cell line panel, 48 h

SMILES strings stand for the structures.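 Cells were grown in 96-well plates and exposed to each compound for 48 hours at five concentrations; endpoints were interpolated linearly between bracketing concentrations, or set to the highest concentration if not reached. Here, GI50 denotes the concentration required for 50% inhibition of growth.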 Activity calls are given as the source filed them. No stated cut-off is given here; in the data, active = GI50 up to about 1.1 µM and inactive = higher. Peptide text beside a SMILES is read from it. * marks the point of attachment. Cbz = O=C(OCc1ccccc1)*; CH2Cl = ClC* Some results are limits rather than exact numbers.

As usually defined, the GI50 is the concentration that inhibits growth by half. For `NS(=O)(=O)c1ccc(NNC(=O)c2cccc3c(=O)c4ccccc4[nH]c23)cc1`, the GI50 was 43.6 µM (inactive) with EKVX; 56.9 µM (inactive) in the test on OVCAR-3; 41.7 µM (inactive) with K562; 91.6 µM (inactive) with ACHN; 72.6 µM (inactive) with SW-620; 34.4 µM (inactive) in the test with HOP-92. Further, the GI50 in the test on UACC-62 is 88.5 µM (inactive); in the test on MDA-MB-435 it was 88.1 µM (inactive); in the test with HCT-15 it was 62.8 µM; in the test with UACC-257, > 100 µM (inactive); with RXF 393 it was 60.4 µM (inactive); in the test on SK-MEL-28, > 100 µM (inactive). Moreover, the GI50 in the test with SK-MEL-2 was > 100 µM (inactive); in the test with HCT-116, 52.1 µM (inactive); in the test on SNB-19 it was > 100 µM (inactive); with SF-268, 71.8 µM (inactive); in the test on PC-3, 65.6 µM (inactive); in the test on U-251, 55.1 µM (inactive). Moreover, in the test on COLO 205, the GI50 is > 100 µM (inactive).

As to `NP(=O)(Oc1c2occc2cc2ccc(=O)oc12)N(CCCl)CCCl` (centres undefined), the GI50 was > 100 µM (inactive) in the test on EKVX; > 100 µM (inactive) in the test on OVCAR-3; > 100 µM (inactive) with K562; 83.2 µM (inactive) in the test on ACHN; > 100 µM (inactive) with SW-620; 49.1 µM (inactive) in the test with HOP-92. Moreover, the GI50 in the test on UACC-62 is > 100 µM (inactive); in the test on MDA-MB-435 it was > 100 µM (inactive); in the test with HCT-15, above 100 µM; with UACC-257, > 100 µM (inactive); in the test with RXF 393, 0.0611 µM (active); with SK-MEL-28, > 100 µM (inactive). Further, the GI50 in the test on SK-MEL-2 is > 100 µM (inactive); in the test with HCT-116 it was > 100 µM (inactive); in the test with SNB-19, > 100 µM (inactive); with SF-268 it was 58.2 µM (inactive); in the test with PC-3 it was > 100 µM (inactive); in the test on U-251 it was > 100 µM (inactive). Also, in the test with COLO 205, the GI50 is > 100 µM (inactive).

For the compound `O=C1C(Cl)=C(N2C(=O)CCC2=O)C(=O)c2ccccc21`, the GI50 with EKVX was 34.2 µM (inactive); in the test with OVCAR-3, 17.9 µM (inactive); in the test on K562 it was 2.83 µM (inactive); in the test on ACHN it was 15.7 µM (inactive); in the test with SW-620, 23.1 µM (inactive); with HOP-92, 7.83 µM (inactive). The GI50 in the test on UACC-62 is 34 µM (inactive); with MDA-MB-435, 19.8 µM (inactive); in the test with HCT-15 it was 13.2 µM; in the test on UACC-257, 25.2 µM (inactive); in the test on RXF 393, 18.5 µM (inactive); with SK-MEL-28, 20.4 µM (inactive). The GI50 was 39.8 µM (inactive) in the test with SK-MEL-2; 22.8 µM (inactive) in the test on HCT-116; 52.6 µM (inactive) in the test on SNB-19; 40.1 µM (inactive) with SF-268; 53.2 µM (inactive) in the test with PC-3; 23.9 µM (inactive) in the test with U-251. For the same compound, the GI50 in the test on COLO 205 is 15.2 µM (inactive).

In the case of `O=C1NCC2(CCN(Cc3ccccc3)CC2)N1`, the GI50 with EKVX, in the test with OVCAR-3, in the test with K562, in the test with ACHN, in the test with SW-620 and in the test with HOP-92 was > 100 µM (inactive) in each case. Also, the GI50 in the test with UACC-62 was > 100 µM (inactive); with MDA-MB-435, > 100 µM (inactive); in the test with HCT-15, above 100 µM; in the test on UACC-257, > 100 µM (inactive); in the test with RXF 393 it was > 100 µM (inactive); with SK-MEL-28 it was > 100 µM (inactive). Moreover, the GI50 in the test on SK-MEL-2, with HCT-116, in the test on SNB-19, in the test with SF-268, in the test on PC-3 and with U-251 was > 100 µM (inactive) in each case. For the same compound, in the test with COLO 205, the GI50 is > 100 µM (inactive).

For the compound `N#Cc1ccc(NC(=O)C(CC(=O)OCc2ccccc2)NC(=O)OCc2ccccc2)cc1` (centres undefined), the GI50 in the test with EKVX, with OVCAR-3, with K562, in the test with ACHN, in the test with SW-620 and in the test with HOP-92 was > 10 µM (inactive) in each case. The GI50 in the test on UACC-62 was > 10 µM (inactive); with MDA-MB-435 it was > 10 µM (inactive); in the test with HCT-15 it was above 10 µM; in the test with UACC-257, > 10 µM (inactive); in the test on RXF 393, > 10 µM (inactive); in the test on SK-MEL-28, > 10 µM (inactive). The GI50 was > 100 µM (inactive) in the test on SK-MEL-2; > 10 µM (inactive) with HCT-116; > 10 µM (inactive) in the test with SNB-19; > 10 µM (inactive) in the test with SF-268; > 10 µM (inactive) with PC-3; > 10 µM (inactive) in the test with U-251. Also, in the test with COLO 205, the GI50 is > 10 µM (inactive).

On to `C=CCN1C(=O)/C(=C/c2ccco2)N=C1SC/C=C/C`, for which the GI50 in the test with EKVX is 37.7 µM (inactive); in the test with OVCAR-3, 35.6 µM (inactive); in the test with K562, 32.4 µM (inactive); with ACHN it was 35.4 µM (inactive); in the test with SW-620 it was 43.9 µM (inactive); in the test with HOP-92, 21.6 µM (inactive). For the same compound, the GI50 was 25.9 µM (inactive) in the test with UACC-62; 31.8 µM (inactive) in the test on MDA-MB-435; 35.7 µM in the test with HCT-15; 48.5 µM (inactive) in the test on UACC-257; 29.2 µM (inactive) with RXF 393; 46.1 µM (inactive) in the test on SK-MEL-28. The GI50 with SK-MEL-2 is 29.4 µM (inactive); with HCT-116, 27.5 µM (inactive); with SNB-19, 71.3 µM (inactive); in the test with SF-268 it was 49.2 µM (inactive); in the test on PC-3, 39 µM (inactive); with U-251, 49.2 µM (inactive). For the same compound, the GI50 with COLO 205 is 36 µM (inactive).

Consider `COc1ccc(N2C(=O)C3c4[nH]c5ccccc5c4C4CCC(c5ccccc5)CC4C3C2=O)cc1` (centres undefined), for which the GI50 in the test with EKVX was 25.1 µM (inactive); in the test on OVCAR-3 it was > 64 µM (inactive); in the test with K562, 11.2 µM (inactive); with ACHN, 12.3 µM (inactive); with SW-620 it was > 32.7 µM (inactive); in the test with HOP-92, 16.1 µM (inactive). Moreover, the GI50 in the test with UACC-62 was 24.8 µM (inactive); with MDA-MB-435 it was > 50.5 µM (inactive); with HCT-15, 36 µM; in the test with UACC-257, 48.4 µM (inactive); in the test with RXF 393 it was 10.2 µM (inactive); with SK-MEL-28 it was > 54.6 µM (inactive). Further, the GI50 in the test with SK-MEL-2 was 23.4 µM (inactive); with HCT-116 it was > 39.8 µM (inactive); with SNB-19 it was 12.5 µM (inactive); in the test on SF-268 it was 10.4 µM (inactive); with PC-3, 36.2 µM (inactive); in the test on U-251, 5.92 µM (inactive). For the same compound, the GI50 with COLO 205 is > 40.4 µM (inactive).

In the case of `CC(C)CC(NC(=O)OCc1ccccc1)C(=O)NC(Cc1ccccc1)C(=O)CCl` (stereo not drawn) (Cbz-Leu-Phe-CH2Cl; configuration not given here), the GI50 was 18.6 µM (inactive) with EKVX; 3.72 µM (inactive) with OVCAR-3; 0.7 µM (active) with K562; 4.25 µM (inactive) with ACHN; 1.57 µM (inactive) in the test with SW-620; 1.89 µM (inactive) with HOP-92. Further, the GI50 in the test with UACC-62 was 2.71 µM (inactive); in the test with MDA-MB-435, 2.34 µM (inactive); in the test with HCT-15, 1.66 µM; with UACC-257 it was 4 µM (inactive); with RXF 393, 1.7 µM (inactive); with SK-MEL-28 it was 1.85 µM (inactive). For the same compound, the GI50 is 2.05 µM (inactive) in the test on SK-MEL-2; 1.68 µM (inactive) in the test with HCT-116; 23.6 µM (inactive) in the test with SNB-19; 4.86 µM (inactive) in the test on SF-268; 4.76 µM (inactive) in the test with PC-3; 8.38 µM (inactive) with U-251. Further, in the test on COLO 205, the GI50 was 2.93 µM (inactive).

For the compound `COc1ccc(Nc2nc3cc(C(F)(F)F)ccc3nc2C(=O)O)cc1OC`, the GI50 with EKVX is 30.8 µM (inactive); with OVCAR-3 it was 17.5 µM (inactive); in the test with K562, 28.6 µM (inactive); with ACHN it was 26.7 µM (inactive); in the test with SW-620, 47.2 µM (inactive); with HOP-92, 19 µM (inactive). Moreover, the GI50 with UACC-62 is 23.7 µM (inactive); in the test with MDA-MB-435, 33.8 µM (inactive); in the test on HCT-15, 35.6 µM; in the test on UACC-257, 29.6 µM (inactive); with RXF 393, 23.3 µM (inactive); with SK-MEL-28, 47.5 µM (inactive). For the same compound, the GI50 in the test with SK-MEL-2 is 11.1 µM (inactive); in the test with HCT-116, 27.4 µM (inactive); with SNB-19, 24 µM (inactive); in the test on SF-268, 42.8 µM (inactive); with PC-3, 36.9 µM (inactive); in the test with U-251 it was 35.8 µM (inactive). Also, in the test with COLO 205, the GI50 was 27.9 µM (inactive).

Regarding `Nc1nc(O)c2ncn(C3C=CC(CO)C3)c2n1` (centres undefined), the GI50 with EKVX, with OVCAR-3, in the test on K562, with ACHN, with SW-620 and in the test with HOP-92 was > 100 µM (inactive) throughout. Besides, the GI50 in the test with UACC-62 is > 100 µM (inactive); with MDA-MB-435, > 100 µM (inactive); in the test on HCT-15, above 100 µM; in the test on UACC-257 it was > 100 µM (inactive); in the test on RXF 393 it was > 100 µM (inactive); in the test on SK-MEL-28, > 100 µM (inactive). The GI50 in the test with SK-MEL-2, with HCT-116, in the test with SNB-19, in the test with SF-268, in the test on PC-3 and in the test with U-251 was > 100 µM (inactive) throughout. Further, in the test on COLO 205, the GI50 is > 100 µM (inactive).

As to `CCOC(=O)NC(Nc1ccc(F)cc1)(C(=O)OCC)C(F)(F)F` (centres undefined), the GI50 in the test on EKVX was > 100 µM (inactive); with OVCAR-3 it was > 100 µM (inactive); in the test on K562, < 0.0307 µM (active); in the test with ACHN, 2.62 µM (inactive); in the test on SW-620, 1.22 µM (inactive); in the test with HOP-92, > 100 µM (inactive). The GI50 in the test on UACC-62 was 0.121 µM (active); in the test with MDA-MB-435, 0.268 µM (active); with HCT-15 it was 29.6 µM; in the test with UACC-257 it was 3.47 µM (inactive); with RXF 393 it was > 100 µM (inactive); in the test on SK-MEL-28 it was > 88.5 µM (inactive). Moreover, the GI50 in the test with SK-MEL-2 is 0.982 µM (active); in the test with HCT-116 it was 3.12 µM (inactive); in the test on SNB-19, > 100 µM (inactive); in the test on SF-268, > 100 µM (inactive); in the test with PC-3, 4.15 µM (inactive); in the test on U-251, > 100 µM (inactive). Besides, in the test on COLO 205, the GI50 was > 26 µM (inactive).

(Values after ChEMBL document CHEMBL1201862, “PubChem BioAssay data set” (2004).)
